Series [1] can be described thus: PBMC cell viability in time of addition assay (MTS / Trypan Blue). The class given is cell-based, Human. The conditions noted are these: human, read-out: TC50. An excerpt:
(§1) Human peripheral blood mononuclear cells (PBMCs) from a minimum of 2 donors, that have been blasted with PHA and IL-2, were counted, viability determined by Trypan Blue dye exclusion and mixed in equal ratios. Pooled donors were used to minimize the variability observed between individual donors which results from quantitative and qualitative differences in HIV infection and overall response to the PHA and IL-2 of primary lymphocyte populations. The cells were resuspended at 1×10^6 cells /mL in RPMI 1640 without phenol red supplemented with 15% Fetal Bovine Serum (heat inactivated), 2 mM L-glutamine, 100 U/mL penicillin, 100 μg/mL streptomycin, 10 μg/mL gentamycin and IL-2 (20 U/mL, R&D Systems, Minneapolis, Minn.). Fifty microliters of cells were then distributed to the inner 60 wells of a 96 well round bottom microtiter culture plate in a standard format developed by the Infectious Disease Research department of Southern Research Institute. Each plate contains cell control wells (cells only), virus control wells (cells plus virus), and experimental wells (drug plus cells plus virus). Alternatively, cells were cultured in T25 cm^2 or T75 cm^2 tissue culture flasks at a starting density of 1×10^6 cells per ml. Serially diluted compounds were added to the microtiter plate or tissue culture flask followed by the appropriate pre-titered strain of HIV-1. For virus replication inhibition experiments the HIV-1 strain RoJo was used. This is a low passage presumable subtype B pediatric isolate with a syncytium inducing (SI) phenotype in MT-2 cells isolated by Southern Research Institute personnel. All samples were assayed in triplicate where possible with an accompanying determination of compound toxicity. The final volume per well in the microtiter plates was 200 μL. The final volume in the tissue culture flask varied depending upon experimental design and flask size. Assays were incubated for 6 days in a humidified atmosphere at 37° C., 5% CO^2, after which supernatants were collected, for analysis of RT activity and cell viability by MTS dye reduction. Culture were also examined microscopically, any abnormalities noted, and in the case of tissue culture flasks cell counts and viability determined by Trypan Blue Dye exclusion.
(§2) Time of addition assays were performed with PBMCs in two ways. For both assays, PBMCs were isolated and cultured under the conditions as described above. Time of addition assays were carried out in either a tissue culture flask format (T-75 cm^2) or in microtiter wells. In both cases due to the lack of plastic adherence and heterogeneity of the PBMC population for susceptibility to infection, it was not possible to use complete removal of virus following a timed adsorption to synchronize the infection and limit the assay to a single round of infection. Therefore, serial washing by partial removal of the media was used to reduce the concentration of virus and compound (if required) in the assay. Compound addition in relationship to antiviral activity was either assessed over a short addition interval immediately before or after virus addition or for up to 72 h post infection. For all assays virus replication was assessed at 6 days of culture by determining RT expression in cell-free supernatants. In the tissue culture flask format cells were counted and Trypan Blue Dye exclusion used to monitor compound cytotoxicity. Cell viability in the 96 well microtiter plate format was determined by MTS dye reduction. AZT was used as a positive control.
(§3) At assay termination the assay plates were stained with the soluble tetrazolium-based dye MTS (CellTiter96® Reagent Promega) to determine cell viability and quantify compound toxicity. MTS is metabolized by the mitochondria enzymes of metabolically active cells to a soluble formazan product, allowing the rapid quantitative analysis cell viability and compound cytotoxicity. […] At termination of the assay 20 μL of MTS reagent was added per well and incubated for 4 h at 37° C. […]

Series [2] relates to peripheral blood mononuclear cells (PBMCs). The series is described as above. Type of series: cell-based, Human. The conditions noted are these: read-out: TC50 (the source's name).
Excerpt: as §1, §2, §3

In series [3] the test system is HIV-1 strain RoJo. As to the kind of experiment: PBMC time of addition assay (RT activity in supernatant at 6 days). Type of series: cell-based. The conditions noted are these: for fold regain of potency (decrease in IC50): after the loss at 2 h; for IC50: Human immunodeficiency virus 1, PBMC.
Excerpt: as §1, §2
Reverse transcriptase activity was measured in cell-free supernatants. Tritiated thymidine triphosphate (NEN) (TTP) was resuspended in distilled H2O at 5 Ci/mL. Poly rA and oligo dT were prepared as a stock solution which was kept at −20° C. The RT reaction buffer was prepared fresh on a daily basis and consists of 125 μL 1.0 M EGTA, 125 μL dH2O, 110 μL 10% SDS, 50 μL 1.0 M Tris (pH 7.4), 50 μL 1.0 M DTT, and 40 μL 1.0 M MgCl2. […]

For series [4], the system named is cell-to-cell fusion mediated by HIV-1 Env and CD4. The experiment in a line: Fusion assay, HeLa CD4 LTR β-gal and HL2/3 cells (Experimental Example 2). The class given is cell-based. The conditions noted are these: Human immunodeficiency virus 1, HL2/3, read-out: Fusion Assay IC50. The procedure:
The fusion assay assesses the ability of compounds to block cell-to-cell fusion mediated by HIV-1 Env and CD4 expressed on separate cells. This assay is sensitive to inhibitors of both the gp 120/CD4 interaction and inhibitors of the X4 coreceptor. HeLa CD4 LTR β-gal cells were plated in microtiter wells and diluted compounds are added and allowed to incubate at 37° C. for 1 hr prior to the addition of HL2/3 cells. The incubation was then continued for 40 to 48 h, after which fusion is monitored by measurement of β-galactosidase enzyme expression, detectable by chemiluminescence (Tropix Gal-screen, Tropix, Bedford, Mass.). Compound toxicity is monitored on a sister plate using XTT or MTS dye reduction. All determinations are performed in triplicate with serial_Log10 dilution of the test materials.

The mark [5] stands for this setting: addition prior to infection, pre-treatment 0 h.
Where [6] appears, read: addition prior to infection, pre-treatment 2 h.
Where [7] appears, read: addition prior to infection, pre-treatment 4 h.
Where [8] appears, read: addition prior to infection, pre-treatment 24 h.

This is an account of results in patent publication US20030232101A1, “Topical formulations of resorcinols and cannibinoids and methods of use” (Immugen Pharmaceuticals, Inc., priority 2002, published 2003).

Like-named read-outs stand apart in the source and are kept apart here.

As a reminder, the IC50 is the concentration at which inhibition is half-maximal.

Take `C=C(C)[C@@H]1CCC(C)=C[C@H]1c1c(O)cc(CCCCC)cc1O` [Cannabidiol, reference compound]: the CC50 at 6 days in series [1] (treatment −4 h pre) was over 100 µM. In addition, the CC50 in series [2] (treatment 6 h post) and in series [2] (treatment at infection) was over 100 µM in each case. The “fold loss of activity (potency)” value in series [3] (2 h pretreatment, listed as cannabidiol) was “approximately 10 fold”. For the same compound, the “fold regain of potency (decrease in IC50)” value in series [3] (4 h pretreatment) is reported as “activity at 2 , regain 3.3-fold”; in series [3] (4 h pretreatment, listed as cannabidiol), 3.3 fold. The “fold increase in IC50” value in series [3] (24 h pretreatment) is reported as “fold at 4 h then a 17-”; in series [3] (24 h pretreatment, listed as cannabidiol), 17 fold. The IC50 in series [3] (addition prior to infection, pre-treatment 0 h, read-out: IC50) worked out at 0.58 µM; in series [3] (addition prior to infection, pre-treatment 2 h, read-out: IC50) it was 5 µM; in series [3] (addition prior to infection, pre-treatment 4 h, read-out: IC50), 1.5 µM.
Take `COc1cc(C(C)(C)CCCC(C)C)cc(OC)c1OC` [IMG507, 1-(1,1,5-Trimethylhexyl)-3,4,5-trimethoxybenzene]: in series [1] (treatment at infection), the CC50 at 6 days is over 100 µM. The CC50 in series [2] (treatment 6 h post) and in series [2] (treatment −4 h pre) was over 100 µM throughout. Besides, the “fold increase in IC50” value in series [3] (24 h pretreatment) is reported as “approximately 2 fold”. The IC50 in series [3] (4 h, treatment −4 h pre) stood at 39.5 µM; in series [3] (6 h, treatment 6 h post) it was 46.1 µM; in series [3] (setting [5]) it was 6.9 µM; in series [3] (setting [6]) it was 6.1 µM; in series [3] (setting [7]), 5.3 µM; in series [3] (setting [8]), 10.8 µM. The compound also registered an IC50 in series [3] (treatment at infection) of 67 µM.
In the case of `CC(C)=CCCC1(C)CCc2c(O)cc(C(C)(C)CCCC(C)C)cc2O1` (stereo not drawn) [IMG508, 3,4-Dihydro-2-methyl-2-(4-methyl-3-pentenyl)-7-(1,1,5-trimethylhexyl)-2H-1-benzopyran-5-ol], the CC50 at 6 days in series [1] (treatment −4 h pre) is over 100 µM. Moreover, the CC50 in series [2] (treatment 6 h post) and in series [2] (treatment at infection) was over 100 µM in each case. The “fold decrease in IC50” value in series [3] (4 h pretreatment) is listed as 4-fold decrease in IC50. Further, the IC50 stood at 6.2 µM in series [3] (4 h, treatment −4 h pre); 22.5 µM in series [3] (6 h, treatment 6 h post); 14.2 µM in series [3] (setting [5]); 10.4 µM in series [3] (setting [6]); 4.1 µM in series [3] (setting [7]); 11.9 µM in series [3] (setting [8]). Half-maximal inhibition in series [3] (treatment at infection) (IC50) required 15.7 µM.
Consider `CC1=CCC2C(C1)c1c(O)cc(C(C)(C)CCCC(C)C)cc1OC2(C)C` (stereo not drawn) [IMG509, 3-Norpentyl-3-(1,1,5-trimethylhexyl)-Δ8-tetrahydrocannabinol], for which, in series [1] (treatment −4 h pre), the CC50 at 6 days is over 100 µM. Moreover, the CC50 in series [2] (treatment 6 h post) and in series [2] (treatment at infection) was over 100 µM each time. Besides, the IC50 in series [4] came to 1.21 µM; in series [3] (4 h, treatment −4 h pre), 19.6 µM; in series [3] (6 h, treatment 6 h post), 10 µM; in series [3] (setting [5]) it was 9.3 µM; in series [3] (setting [6]), 11 µM; in series [3] (setting [7]), 12.6 µM. Besides, the IC50 in series [3] (setting [8]) turned out to be 6.6 µM; in series [3] (treatment at infection), 17.5 µM. In series [3] (24 h pretreatment), the “fold decrease in IC50” value was “approximately 2 fold”.
As for `Cc1c(O)cc(C(C)(C)CCCC(C)C)cc1O` [IMG510, 2-Methyl-5-(1,1,5-trimethylhexyl)resorcinol], the CC50 at 6 days in series [1] (treatment −4 h pre) is over 100 µM. Further, the CC50 in series [2] (treatment 6 h post) and in series [2] (treatment at infection) was over 100 µM throughout. Also, the IC50 in series [4] stood at 1.36 µM; in series [3] (4 h, treatment −4 h pre) it was 17.7 µM; in series [3] (6 h, treatment 6 h post), 14.4 µM; in series [3] (setting [5]), 13.4 µM; in series [3] (setting [6]), 1.4 µM; in series [3] (setting [7]) it was 11.5 µM. Also, the figures for the 50% inhibitory concentration (IC50) in series [3] (setting [8]) and in series [3] (treatment at infection) were 9.5 µM and 16.1 µM, respectively. Further, the “fold decrease in IC50” value in series [3] (2 h pretreatment) is reported as 9.5-fold decrease in.
`Cc1ccc2c(c1)-c1c(O)cc(C(C)(C)CCCC(C)C)cc1OC2(C)C` [IMG511, 3-Norpentyl-3-(1,1,5-trimethylhexyl)cannabinol]: the CC50 at 6 days in series [1] (treatment −4 h pre) is over 100 µM. In addition, the CC50 in series [2] (treatment 6 h post) and in series [2] (treatment at infection) was over 100 µM throughout. Also, the IC50 turned out to be 0.92 µM in series [4]; 15.2 µM in series [3] (4 h, treatment −4 h pre); 9.3 µM in series [3] (6 h, treatment 6 h post); 6.6 µM in series [3] (setting [5]); 9.4 µM in series [3] (setting [6]); 11.7 µM in series [3] (setting [7]). Besides, the IC50 in series [3] (setting [8]) is 33.2 µM; in series [3] (treatment at infection), 16.9 µM. The “fold increase in IC50” value in series [3] (24 h pretreatment) is reported as 5-fold increase in IC50.
